Data published in patent US9868722B2, “Monocyclic pyrimidine/pyridine compounds as inhibitors of P97 complex” (Cleave Biosciences, Inc., priority 2013, dated 2018).

Tested on: Caco-2 cell monolayers
Settings: pH 7.4, range over 12 inter-day experiments

- Peff (×E-6 cm/sec) in pH 7.4 Caco-2, A B, Range (A to B): 18.50-36.80 ×E-6 cm/sec
- Peff (×E-6 cm/sec) in pH 7.4 Caco-2, B A, Range (B to A): 16.30-31.40 ×E-6 cm/sec
SMILES: CC(C)NCC(O)COc1cccc2ccccc12 (centres unmarked) [Propranolol]
